Assay results from PubChem BioAssay AID1845217 (Molecular Pharmacology Branch, DTP, NCI, 2023).
“And” between values parts separate entries of the source, which are not always exact repeats. Equal values may be shown once. The source made the active and inactive calls. How the source made its calls: active means viability on the fitted dose curve at most 10% of control; inactive means the rest.

Tested on: VA-ES-BJ tumor spheroid viability
Test: Anticancer human tumor VA-ES-BJ cell line growth inhibition;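 on IC50: spheroids exposed to compounds for seven days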;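 on viability, T/C: spheroids exposed to compounds for seven days; percent of DMSO vehicle control viability so 100% = untreated growth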
Conditions: spheroids with HUVEC and MSC; for viability, T/C: stronger effect = lower value
Description: Multicellular complex tumor spheroid response to DNA repair inhibitors in combination with DNA-damaging drugs
This study explores the anticancer activities of DNA-damaging drugs and inhibitors of DNA damage repair, both as single agents and in combinations. Complex tumor spheroids comprised of malignant cells, endothelial cells and mesenchymal stem cells served as an in vitro model for human solid tumors. This model system incorporates physiologically relevant features and patient-derived or established malignant cell lines with clinically relevant genetic alterations from many tumor types. Twenty-six patient-derived or established malignant cell lines were evaluated representing sarcoma, melanoma, small cell lung cancer (SCLC), non-small cell lung cancer (NSCLC), as well as bladder, ovarian and pancreatic cancers. The concentration ranges selected for each drug and investigational agent were based upon clinically achievable concentrations if the clinical Cmax of the agent was known.
Compounds. The drugs and compounds olaparib (NSC753686), talazoparib (NSC767125), berzosertib (NSC777718), elimusertib (NSC800525), nedisertib (NSC802822), VX-984 (NSC792969), AZD-1390 (NSC803789), temozolomide (NSC362856), topotecan (NSC609699), trabectedin (NSC813783), staurosporine (NSC755774), and gemcitabine (NSC613327) were obtained from the National Cancer Institute (NCI) Developmental Therapeutics Program Chemical Repository. The FDA-approved anticancer drug set is available from the Developmental Therapeutics Program at https://dtp.cancer.gov/organization/dscb/obtaining/available_plates.htm. […] The stock solutions were prepared in dimethyl sulfoxide (DMSO, Sigma-Aldrich, St. Louis, MO, cat. D2650) at 400-fold the tested concentration and stored at -70 degrees C. Prior to their use, the stock solutions were diluted in fresh medium and the final DMSO concentration in the assay was 0.25% (v/v). All drugs and investigational agents were tested over a range starting from a high concentration at or near the clinical Cmax and decreasing in half-log increments. If the clinical Cmax for an agent had not been determined, the highest concentration tested was 10 microM.
Cell Lines. The patient-derived cancer cell (PDC) lines: 156681-154-R-J1-PDC, 283228-195-R-J1-PDC, 287954-098-R-J1-PDC, 292921-168-R-J2-PDC, 349418-098-R-PDC, 425362-245-T-J1-PDC, 556581-035-R-J1-PDC, and BL0293-F563-PDC were received from the NCI Patient-Derived Models Repository (PDMR, https://pdmr.cancer.gov). The established cell lines HS-SY-2 (RRID:CVCL_8719), MPNST, and SYO-1 (RRID:CVCL_7146) were obtained from the Sloan Kettering Institute. The alveolar soft parts sarcoma cell line ASPS-1 (RRID:CVCL_S738) was established at the NCI and grown from internal seed stocks. The following established cell lines were purchased from the American Type Culture Collection (ATCC, Manassas, VA): G-401 (ATCC, cat. CRL-1441, RRID:CVCL_0270), SW982 (ATCC, cat. HTB-93, RRID:CVCL_1734), VA-ES-BJ (ATCC, cat. CRL-2138, RRID:CVCL_1785), NCI-H719 (ATCC, cat. CRL-5837, RRID:CVCL_1582), NCI-H196 (ATCC, cat. CRL-5823, RRID:CVCL_1509), NCI-H841 (ATCC, cat. CRL-5845, RRID:CVCL_1595), NCI-H1618 (ATCC, cat. CRL-5879, RRID:CVCL_1480), NCI-H1876 (ATCC, cat. CRL-5902, RRID:CVCL_1503), DMS 114 (ATCC, cat. CRL-2066; RRID:CVCL_1174), NCI-H211 (ATCC, cat. CRL-5824; RRID:CVCL_1529), and SW 1271 (ATCC, cat. CRL-2177, RRID:CVCL_1716). The small cell lung cancer cell line COR-L88 was purchased from Sigma-Aldrich (cat. 92031917-1VL, RRID:CVCL_1141). The non-small cell lung cancer cell lines NCI-H226 (RRID:CVCL_1544) and NCI-H322M (RRID:CVCL_1557) were established at the NCI and grown from internal seed stocks. Pooled donor human umbilical vein endothelial cells (HUVEC, Lonza, cat. CC-2519) and human mesenchymal stem cells (hMSC, Lonza, cat. PT-2501) were purchased from Lonza (Walkersville, MD).
Cell Culture. All cells were maintained in an incubator at 37 degrees C and 5% CO2 with 95% humidity. […]

[1] = compound alone, run of 12/02/2019
[2] = compound alone, run of 12/12/2019

SMILES | viability, T/C (compound 0.0316 µM) | viability, T/C (compound 0.1 µM) | viability, T/C (compound 0.316 µM) | viability, T/C (compound 1 µM) | viability, T/C (compound 3.16 µM) | viability, T/C (compound 10 µM) | IC50 (curve of compound) | viability, T/C (compound 0.0949 µM) | viability, T/C (compound 0.3 µM) | viability, T/C (compound 0.949 µM) | viability, T/C (compound 3 µM) | further results
CC(C)n1c(=O)n(C)c2cnc3cc(F)c(-c4ccc(OCCCN5CCCCC5)nc4)cc3c21 | 77.7% and 93.7% and 97.1% | 74.2% and 93.9% and 95.2% | 73.1% and 90.5% and 92.7% | 85.2% and 100% and 99% | 91.6% and 105% (2×) | 59.8% and 65.4% and 71.2% | > 10000 nM |  |  |  |  | 
CC1COCCN1c1cc(-c2ccnn2C)c2ccnc(-c3ccn[nH]3)c2n1 (stereo not drawn) | 9.71% and 87.1% and 84.4% |  | 9.14% and 23.2% and 30.3% | 5.45% and 9.1% and 11% | 5.18% and 6.34% and 6.93% | 4.89% and 6.26% and 6.35% | < 31.6 nM and 110 nM and 153 nM |  |  |  |  | 
CC[C@@]1(O)C(=O)OCc2c1cc1n(c2=O)Cc2cc3c(CN(C)C)c(O)ccc3nc2-1 |  |  |  |  |  |  |  | 7.65% [middle of 10 runs] | 5.65% [middle of 10 runs] |  |  | viability, T/C (compound 0.003 µM): 94% [middle of 10 runs]; IC50 [1]: 21.8 nM [middle of 5 runs]; IC50 [2]: 28.5 nM [middle of 5 runs]
CNCc1ccc(-c2cc(-c3nc(-c4ccc(S(=O)(=O)C(C)C)cc4)cnc3N)on2)cc1 |  |  |  |  |  |  | 289 nM and 399 nM and 235 nM | 76% and 74.3% and 83% | 48.9% and 63.3% and 41% | 9.28% and 11.6% and 7.52% | 2.21% and 6.18% and 1.41% | viability, T/C (compound 0.00949 µM): 77.7% and 86.1% and 87.9%; viability, T/C (compound 0.03 µM): 77.8% and 85% and 86.1%
COc1cc(C)[nH]c(=O)c1CN1CCc2c(Cl)cc(C(OC)C3COC3)c(Cl)c2C1=O (stereo not drawn) | 90.1% and 94.4% | 60.6% and 79.6% and 86.1% | 62.8% and 67% and 69.9% | 50.1% and 56.3% and 63.1% | 44.1% and 54.4% and 58.9% | 41.7% and 49.4% and 52.7% | 1550 nM and > 10000 nM |  |  |  |  | outcome (compound 0.0316 µM): inactive
COc1cc2c(cc1O)CCNC21CSC2c3c(OC(C)=O)c(C)c4c(c3C(COC1=O)N1C(O)C3Cc5cc(C)c(OC)c(O)c5C(C21)N3C)OCO4 (stereo not drawn) |  |  |  |  |  |  |  |  |  |  |  | viability, T/C (compound 0.000949 µM): 2.96% [middle of 10 runs]; viability, T/C (compound 0.003 µM): 1.18% [middle of 9 runs]; IC50 [2]: 0.256 nM [middle of 10 runs]
COc1ccc([C@@H](O)c2cc(-c3ncnc4cc(N5CCOCC5)ccc34)c(F)cc2Cl)nn1 | 99.7% and 97.1% and 92.4% | 113% and 95.6% and 88.6% | 71.4% and 65.5% and 79.8% | 45.9% and 32.2% and 52% | 17.3% and 11.2% and 21.3% | 10.2% and 6.84% and 8.9% | 780 nM and 549 nM and 1080 nM |  |  |  |  | 
Cc1cc(C)c(CNC(=O)c2cc(-c3ccc(CN4CCOCC4)cc3)cc3c2cnn3C2CCCC2)c(=O)[nH]1 | 101% and 98% and 103% | 100% and 106% and 101% | 98.5% and 97.2% and 99.1% | 103% (2×) and 100% | 102% and 107% and 112% | 91.8% and 91.9% and 104% | > 10000 nM |  |  |  |  | 
Cc1sc2c(c1C)C(c1ccc(Cl)cc1)=NC(CC(=O)Nc1ccc(O)cc1)c1nnc(C)n1-2 (stereo not drawn) |  |  |  |  |  |  | 84.1 nM and 60.9 nM and 73.1 nM | 47.3% and 45% and 46.2% | 30.5% and 32.6% and 28.8% | 25.7% and 24.2% and 20.7% | 18.6% and 22.5% and 15.8% | viability, T/C (compound 0.00949 µM): 72.1% and 86.4% and 77.2%; viability, T/C (compound 0.03 µM): 66.8% and 59.2% and 64.1%
Cn1ncnc1[C@H]1c2n[nH]c(=O)c3cc(F)cc(c23)N[C@@H]1c1ccc(F)cc1 |  |  |  |  |  |  | 400 nM and 619 nM and 469 nM | 68.5% and 82.6% and 74.7% | 55.8% and 65.9% and 58.5% | 33.7% and 41.4% and 36% | 7.23% and 7.48% and 6.56% | viability, T/C (compound 0.00949 µM): 82.2% and 101% and 87.7%; viability, T/C (compound 0.03 µM): 81.7% and 78.2% and 85.3%
Cn1nnc2c(C(N)=O)ncn2c1=O |  |  |  | 104% [middle of 10 runs] | 103% [middle of 10 runs] | 107% [middle of 10 runs] |  |  |  |  |  | viability, T/C (compound 100 µM): 104% [middle of 10 runs]; IC50 [1]: > 100000 nM
O=C(c1cc(Cc2n[nH]c(=O)c3ccccc23)ccc1F)N1CCN(C(=O)C2CC2)CC1 |  |  |  |  |  |  | > 30000 nM and 25800 nM | 113% and 96.3% and 94.1% | 98.4% and 84.9% and 93.2% | 101% and 89.1% and 92.5% | 98.7% and 88% and 87% | viability, T/C (compound 9.49 µM): 74.6% and 71.3% and 67.4%; viability, T/C (compound 30 µM): 67.4% and 52.5% and 47.3%
[2H]c1nc(C)nc([2H])c1-c1cc(NC[C@@H](C)c2cccc3c(C(=O)NC)ccnc23)ncn1 | 70.8% and 104% and 89.9% | 77.2% and 94.7% and 88.6% | 80% and 92.6% and 90.8% | 79.4% and 104% and 99.8% | 86.9% and 95.6% and 103% | 83.2% and 99.6% and 104% | > 10000 nM |  |  |  |  | 
